ChEMBL document CHEMBL1149743, “Linear diterpenes from the Caribbean sponge Myrmekioderma styx” (J Nat Prod, 1992)
In brackets after ≈: the same amount, converted by molar mass.

What was measured:
Artemia salina = experiment: (§1) Toxicity against Artemia salina after 24 hrs; format: organism-based; conditions: in vivo, 24 h
[1] = as §1; format: organism-based; conditions: in vivo

Structure (SMILES) | Activity (Artemia salina) | LC50 at 24 h [1] [µg/mL]
C=CC(C)(O)/C=C/C=C(\C)CC/C=C(\C)CCC=C(C)C (centres undefined) | Toxic | –
C=CC(C)(O)/C=C/C=C(\C)CC/C=C(\C)CC(=O)CC(C)C (centres undefined) | – | 3 (≈ 9.85 µM)
C=CC(C)(O)/C=C/C=C(\C)CCC/C(C)=C\C(=O)C=C(C)C (centres undefined) | – | 163 (≈ 539 µM)
C=CC(C)(O)/C=C/C=C(\C)CC/C=C(\C)CC(=O)C=C(C)C (centres undefined) [STYXENOL A] | – | 154 (≈ 509 µM)
